Data on 4 compounds can be found in article PMC6402572 (ChemMedChem, 2018).

For one assay, the system named is HCT116 cells. Briefly: Soft agar anchorage-independent growth assay, HCT116 cells. It is filed as cell-based. The note with it: read-out: GI50, anchorage-independent growth of HCT116 cells, Control, without SIRT2 overexpression.
In assay [1] the test system is HCT116 cells with SIRT2 overexpression. The note with it: read-out: GI50, anchorage-independent growth of HCT116 cells, SIRT2 expression, soft agar.
For the next assay, the target named is T1, SIRT3 (Homo sapiens, UniProt Q9NTG7).
T1 sequence (Q9NTG7 1-399): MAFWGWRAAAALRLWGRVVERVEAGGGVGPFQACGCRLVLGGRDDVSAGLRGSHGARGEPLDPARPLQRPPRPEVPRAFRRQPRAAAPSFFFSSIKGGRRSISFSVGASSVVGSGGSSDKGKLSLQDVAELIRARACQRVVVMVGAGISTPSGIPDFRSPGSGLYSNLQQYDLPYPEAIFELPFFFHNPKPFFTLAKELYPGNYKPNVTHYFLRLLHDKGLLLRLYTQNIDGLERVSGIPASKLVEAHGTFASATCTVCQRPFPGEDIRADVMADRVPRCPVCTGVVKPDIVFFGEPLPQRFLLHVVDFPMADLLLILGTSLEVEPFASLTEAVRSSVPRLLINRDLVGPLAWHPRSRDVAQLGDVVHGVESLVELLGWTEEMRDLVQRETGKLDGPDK
Briefly: HPLC-based SIRT3 deacetylation assay. The class given is biochemical. The note with it: with pre-incubation.

The next assay concerns the target SIRT6 (Homo sapiens, UniProt Q8N6T7). The experiment in a line: HPLC-based SIRT6 demyristoylation assay. It is filed as biochemical. The note with it: with pre-incubation.
In a further assay the test system is MCF10A cells. Briefly: Cytotoxicity. The class given is cell-based. The note with it: read-out: GI50 in MCF10A cells; normal mammary epithelial cell line.
The test system of the next assay is HME-1 cells. The experiment in a line: Cytotoxicity. It is filed as cell-based. The note with it: read-out: GI50 in HME-1 cells; normal mammary epithelial cell line.

Chain of SIRT6 (Q8N6T7 whole entry, species assumed): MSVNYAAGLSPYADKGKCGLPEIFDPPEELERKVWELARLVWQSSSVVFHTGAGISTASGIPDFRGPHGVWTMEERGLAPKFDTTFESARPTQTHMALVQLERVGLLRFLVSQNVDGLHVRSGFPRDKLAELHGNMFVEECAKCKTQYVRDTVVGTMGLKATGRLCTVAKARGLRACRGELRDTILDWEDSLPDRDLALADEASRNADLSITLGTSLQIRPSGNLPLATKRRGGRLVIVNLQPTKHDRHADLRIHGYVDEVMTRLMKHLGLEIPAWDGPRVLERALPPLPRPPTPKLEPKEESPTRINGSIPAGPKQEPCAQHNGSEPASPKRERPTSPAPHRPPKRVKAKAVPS

Broadly, the GI50 is the concentration at which growth is held to half of that of the control. With `N#C/C(=C\c1ccc(-c2cc(Cl)ccc2Cl)o1)C(=O)Nc1cccc2ncccc12` [AGK2], the GI50 with HCT116 cells stood at 24.1 µM; in assay [1], 27.6 µM.
On the same counts, the results for `Cc1cc(C)nc(SCC(=O)Nc2ncc(Cc3cccc4ccccc34)s2)n1` [SirReal2] are 55.8 µM and 58.1 µM.
Take `CCCCCCCCCCCCCC(=S)NCCCCC(NC(=O)OCc1ccccc1)C(=O)Nc1ccccc1` (centres unmarked) [TM]: at SIRT3, the “Inhibition of SIRT3” value is given as “essentially did not inhibit”. Also, the “Inhibition of SIRT6” value at SIRT6 is reported as “essentially did not inhibit”. In addition, the GI50 is above 50 µM in the assay on MCF10A cells, above 50 µM in the assay on HME-1 cells, 13.5 µM in the assay on HCT116 cells and 24.2 µM in assay [1].
As to `CN(C)CCCCC(=O)Nc1ccc(NC(=S)NC(=O)c2ccc(C(C)(C)C)cc2)cc1` [Tenovin-6], in the assay on HCT116 cells, the GI50 came out at 2.1 µM.
